In ChEMBL document CHEMBL5518220, “The Discovery of 7-Isopropoxy-2-(1-methyl-2-oxabicyclo[2.1.1]hexan-4-yl)-N-(6-methylpyrazolo[1,5-a]pyrimidin-3-yl)imidazo[1,2-a]pyrimidine-6-carboxamide (BIO-7488), a Potent, Selective, and CNS-Penetrant IRAK4 Inhibitor for the Treatment of Ischemic Stroke” (J Med Chem, 2024):
Active and inactive are the calls of the source. The calls are words filed in the database; no cut-off is given here.

Tests used:
[1] = Metabolic stability in rat liver microsomes assessed as intrinsic clearance; assay type: ADME, Microsome; conditions: read-out: CLH
[2] = biological target: T1, Interleukin-1 receptor-associated kinase 4 (Homo sapiens, UniProt Q9NWZ3)
T1 sequence (Q9NWZ3 whole entry): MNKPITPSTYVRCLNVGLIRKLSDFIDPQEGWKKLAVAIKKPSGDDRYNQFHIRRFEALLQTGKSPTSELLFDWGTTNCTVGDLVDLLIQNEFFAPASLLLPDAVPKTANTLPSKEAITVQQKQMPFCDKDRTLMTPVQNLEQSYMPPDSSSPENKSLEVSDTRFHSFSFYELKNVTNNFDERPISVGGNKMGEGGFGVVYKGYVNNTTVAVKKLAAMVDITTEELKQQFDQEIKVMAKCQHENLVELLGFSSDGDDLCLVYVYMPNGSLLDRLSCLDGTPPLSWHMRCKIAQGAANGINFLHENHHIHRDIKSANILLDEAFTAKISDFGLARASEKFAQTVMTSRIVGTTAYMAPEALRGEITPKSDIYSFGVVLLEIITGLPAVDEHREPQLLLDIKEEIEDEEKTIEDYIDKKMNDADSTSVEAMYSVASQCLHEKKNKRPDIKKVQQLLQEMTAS

[3] = Metabolic stability in rat hepatocytes assessed as intrinsic clearance; assay type: ADME, cell-based, Hepatocyte; conditions: read-out: CLH
[4] = Metabolic stability in human hepatocytes assessed as intrinsic clearance; assay type: ADME, cell-based, Hepatocyte; conditions: read-out: CLH
[5] = Metabolic stability in human liver microsomes assessed as intrinsic clearance; assay type: ADME, Microsome; conditions: read-out: CLH
[6] = Unbound brain-to-plasma concentration ratio in iv dosed rat measured at 4 to 24 hrs by LC-MS/MS analysis; assay type: ADME, organism-based; conditions: brain and plasma, time 4-24 hrs, read-out: K(p,uu,brain)
[7] = Unbound clearance in rat at 1 mg/kg, iv by LC-MS/MS analysis; assay type: ADME, organism-based; conditions: in vivo
[8] = Clearance in rat at 1 mg/kg, iv by LC-MS/MS analysis; assay type: ADME, organism-based; conditions: in vivo
MDR1 (P-gp) = test: Efflux ratio of apparent permeability across basolateral to apical side over apical to basolateral side in MDCK-MDR1 cells at 1 uM incubated for 120 mins by LC-MS/MS analysis; assay type: ADME, cell-based, Canis lupus familiaris; conditions: dog
[9] = biological target: Voltage-gated inwardly rectifying potassium channel KCNH2 (Homo sapiens, UniProt Q12809); test: Inhibition of hERG by patch clamp method; assay type: toxicity
Mus musculus [10] = test: Inhibition of LPS-induced IL-1beta production in po dosed female C57BL/6 mouse assessed as reduction in IL-1beta level in plasma administered via oral gavage for 60 mins followed by LPS stimulation at 0.5 mg/kg, ip measured after 90 mins by ELISA; assay type: functional, organism-based
Mus musculus [11] = test: Inhibition of IL-6 production in male C57BL/6 mouse model of distal hypoxic-middle cerebral artery occlusion stroke assessed as reduction in IL-6 level in CNS at 10 to 30 mg/kg, po qd administered via oral gavage for 3 days starting from 1 hr 15 mins post cauterization by ELISA; assay type: functional, organism-based; conditions: dose 10-30 mg/kg, time 3.0 day
Mus musculus [12] = test: Inhibition of IL-6 production in male C57BL/6 mouse model of distal hypoxic-middle cerebral artery occlusion stroke assessed as reduction in IL-6 level in brain at 10 to 30 mg/kg, po qd administered via oral gavage for 3 to 7 days starting from 1 hr 15 mins post cauterization by ELISA; assay type: functional, organism-based; conditions: dose 10-30 mg/kg, time 3-7 day
Mus musculus [13] = test: Inhibition of LPS-induced TNF-alpha production in po dosed female C57BL/6 mouse assessed as reduction in TNF-alpha level in brain administered via oral gavage for 60 mins followed by LPS stimulation at 0.6 ug, icv measured after 120 mins by ELISA; assay type: functional, organism-based; conditions: dose 10-30 mg/kg, time 180.0 min
Mus musculus [14] = test: Inhibition of LPS-induced IL-1beta production in po dosed female C57BL/6 mouse assessed as reduction in IL-1beta level in brain administered via oral gavage for 60 mins followed by LPS stimulation at 0.6 ug, icv measured after 120 mins by ELISA; assay type: functional, organism-based; conditions: dose 10-30 mg/kg, time 180.0 min
Mus musculus [15] = test: Inhibition of IL-1beta production in male C57BL/6 mouse model of distal hypoxic-middle cerebral artery occlusion stroke assessed as reduction in IL-1beta level in brain at 10 to 30 mg/kg, po qd administered via oral gavage for 3 to 7 days starting from 1 hr 15 mins post cauterization by ELISA; assay type: functional, organism-based; conditions: dose 10-30 mg/kg, time 3-7 day
Mus musculus [16] = test: Inhibition of LPS-induced IL-6 production in po dosed female C57BL/6 mouse assessed as reduction in IL-6 level in plasma administered via oral gavage for 60 mins followed by LPS stimulation at 0.5 mg/kg, ip measured after 90 mins by ELISA; assay type: functional, organism-based
Mus musculus [17] = test: Inhibition of LPS-induced TNF-alpha production in po dosed female C57BL/6 mouse assessed as reduction in TNF-alpha level in plasma administered via oral gavage for 60 mins followed by LPS stimulation at 0.5 mg/kg, ip measured after 90 mins by ELISA; assay type: functional, organism-based
[18] = Free drug level in male C57BL/6 mouse brain at 30 mg/kg, po qd measured on 3 to 7 days; assay type: ADME, organism-based; conditions: in vivo, time 3-7 day
Mus musculus [19] = test: Inhibition of TNF-alpha production in male C57BL/6 mouse model of distal hypoxic-middle cerebral artery occlusion stroke assessed as reduction in TNF-alpha level in CNS at 10 to 30 mg/kg, po qd administered via oral gavage for 3 to 7 days starting from 1 hr 15 mins post cauterization by ELISA; assay type: functional, organism-based; conditions: dose 10-30 mg/kg, time 3-7 day
Mus musculus [20] = test: Inhibition of LPS-induced IL-6 production in po dosed female C57BL/6 mouse assessed as reduction in IL-6 level in brain administered via oral gavage for 60 mins followed by LPS stimulation at 0.6 ug, icv measured after 120 mins by ELISA; assay type: functional, organism-based; conditions: dose 10-30 mg/kg, time 180.0 min
[21] = Lipophilicity, logD of compound in n-octanol and aqueous buffer at pH 7.4 by RP-HPLC method; assay type: physicochemical
[22] = Inhibition of […] induced IL-1beta production in human whole blood preincubated for 1 hr followed by R848 stimulation and measured after 4 hrs by MSD assay; assay type: functional, tissue-based
Mus musculus [23] = test: Inhibition of TNF-alpha production in male C57BL/6 mouse model of distal hypoxic-middle cerebral artery occlusion stroke assessed as reduction in TNF-alpha level in brain at 10 to 30 mg/kg, po qd administered via oral gavage for 3 days starting from 1 hr 15 mins post cauterization by ELISA; assay type: functional, organism-based; conditions: dose 10-30 mg/kg, time 3.0 day

Voltage-gated inwardly rectifying potassium channel KCNH2, sequence (Q12809 whole entry): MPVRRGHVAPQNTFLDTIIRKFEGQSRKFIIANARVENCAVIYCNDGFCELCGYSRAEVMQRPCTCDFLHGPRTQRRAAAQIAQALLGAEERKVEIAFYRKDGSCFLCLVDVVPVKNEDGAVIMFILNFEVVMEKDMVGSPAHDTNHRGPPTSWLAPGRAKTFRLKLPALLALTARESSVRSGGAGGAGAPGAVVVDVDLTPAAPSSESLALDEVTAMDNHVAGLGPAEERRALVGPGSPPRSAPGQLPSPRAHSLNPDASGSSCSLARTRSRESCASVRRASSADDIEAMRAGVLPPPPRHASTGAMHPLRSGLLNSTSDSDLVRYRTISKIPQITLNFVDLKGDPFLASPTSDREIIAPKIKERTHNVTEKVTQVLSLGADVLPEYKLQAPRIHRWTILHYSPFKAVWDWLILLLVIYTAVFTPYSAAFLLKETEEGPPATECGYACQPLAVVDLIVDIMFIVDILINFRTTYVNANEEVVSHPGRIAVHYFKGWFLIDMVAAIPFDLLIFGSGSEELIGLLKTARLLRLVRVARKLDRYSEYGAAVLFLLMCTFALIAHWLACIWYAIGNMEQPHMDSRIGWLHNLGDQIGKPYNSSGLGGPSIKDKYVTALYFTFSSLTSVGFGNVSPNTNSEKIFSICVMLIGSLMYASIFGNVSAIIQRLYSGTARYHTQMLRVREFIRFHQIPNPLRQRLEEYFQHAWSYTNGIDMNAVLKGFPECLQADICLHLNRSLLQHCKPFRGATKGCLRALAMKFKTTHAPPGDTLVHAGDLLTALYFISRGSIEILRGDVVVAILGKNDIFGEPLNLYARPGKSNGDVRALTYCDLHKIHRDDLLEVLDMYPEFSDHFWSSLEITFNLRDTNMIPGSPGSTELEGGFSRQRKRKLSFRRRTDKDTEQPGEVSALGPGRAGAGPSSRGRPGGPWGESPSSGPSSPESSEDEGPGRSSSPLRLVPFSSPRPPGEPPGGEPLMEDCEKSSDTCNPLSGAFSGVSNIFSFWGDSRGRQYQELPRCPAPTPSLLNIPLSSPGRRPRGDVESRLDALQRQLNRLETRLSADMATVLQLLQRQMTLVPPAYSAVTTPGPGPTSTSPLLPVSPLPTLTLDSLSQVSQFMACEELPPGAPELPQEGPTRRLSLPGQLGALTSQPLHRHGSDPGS

| SMILES | CLint scaled [1] [mL/min/kg] | IC50 [2] [nM] | CLint scaled [3] [mL/min/kg] | CLint scaled [4] [mL/min/kg] | CLint scaled [5] [mL/min/kg] | Kp uu [6] | CL free [7] [mL/min/kg] | clearance [8] [mL/min/kg] | IC50 [9] [nM] | also measured |
| --- | --- | --- | --- | --- | --- | --- | --- | --- | --- | --- |
| CC(C)Oc1cc2nc(C3CCOCC3)cn2cc1C(=O)Nc1cccc(C(F)F)n1 | 81 | 0.25 | 29 | 28 | 21 |  |  |  |  |  |
| Cc1cc2nc(C3CCOCC3)cn2cc1NC(=O)c1cccc(C(F)F)n1 | 20 | 150 | 36 | 18 | < 5 | 1 | 149 | 16 |  |  |
| CC(C)Oc1nc2nc(C34COC(C)(C3)C4)cn2cc1C(=O)Nc1cnn2ccncc12 |  | 16.3 |  |  |  |  |  |  |  |  |
| CCOc1cc2nc(C34COC(C)(C3)C4)cn2cc1NC(=O)c1cccc(C(F)F)n1 | < 11 | 0.2 | 11 | 19 | 5.4 | 0.4 | 1388 | 37 | 780 | efflux ratio at 2 h, 1 µM (MDR1 (P-gp)): 1.4 |
| Cc1cc(NC(=O)c2cccc(C(F)F)n2)cn2cc(C3CCOCC3)nc12 | 26 | 130 | 12 | 16 | 11 | 0.7 | 227 | 20 |  |  |
| COc1cc(NC(=O)c2cccc(C(F)(F)F)n2)cn2cc(C3CCOCC3)nc12 | 20 |  | < 3 | 8 | < 5 | 0.2 | 45 | 10 |  |  |
| CC(C)Oc1cc2nc(C34COC(C)(C3)C4)cn2cc1C(=O)Nc1cccc(C(F)F)n1 | 11 | 0.17 | < 3 | 5.3 | < 5 | 0.4 | 563 | 15 | 2200 | inhibition (Mus musculus [10]): Dose-Dependent Effect; inhibition (Mus musculus [11]): inactive; inhibition (Mus musculus [12]): Active; inhibition (Mus musculus [13]): Dose-Dependent Effect; inhibition (Mus musculus [14]): Dose-Dependent Effect; inhibition (Mus musculus [15]): Active; inhibition (Mus musculus [16]): Dose-Dependent Effect; inhibition (Mus musculus [17]): Dose-Dependent Effect; Drug uptake(free) [18]: 100 nM; inhibition (Mus musculus [19]): inactive; inhibition (Mus musculus [20]): Dose-Dependent Effect; logD [21]: 4.4; IC50 ([22]; Homo sapiens, Blood): 306 nM; fIC50 ([22]; time 5 hrs): 6 nM; inhibition (Mus musculus [23]): inactive |
| CCOc1cc2nc(C3CC3)cn2cc1NC(=O)c1cccc(C(F)F)n1 | 145 |  |  |  | 20 |  |  |  |  | efflux ratio at 2 h, 1 µM (MDR1 (P-gp)): 0.4 |
| CC(C)Oc1nc2nc(C34COC(C)(C3)C4)cn2cc1C(=O)Nc1cnn2cc(F)cnc12 |  |  |  |  |  | 0.2 | 67 | 7.2 | 18000 | logD [21]: 2.4 |
